# Assays:
# Heterakis spumosa [1] = assay: Anthelmintic activity against Heterakis spumosa in mice; assay type: in vivo; details: Heterakis spumosa (mouse); treated on four consecutive days 35 days post-infection; worms counted day 7 after treatment
# Procedure: Male mice (strain Bor CFW, body weight between 25 and 30 g) are kept in Makrolon cages (3 animals/cage) and fed ad lib with water and SNIFF rat food (10 mm pellets). Mice are infected with Heterakis spumosa by oral administration of 90 embryonated eggs. The eggs had been obtained from female worms which had been isolated from the mices colon 40 days post-infection. The eggs were incubated for a further 3 weeks at 37° C. 35 days post-infection, the mice were treated with the respective dose of PF1022A or emodepside on four consecutive days. PF1022A is suspended in Cremophor EL. On day 7 after the treatment, the mice are sacrificed, the ileum/caecum/colon region is removed, and the worms are counted with the naked eye. The ratio of the number of expelled worms in percent of the total number of worms in untreated, infected control animals is defined as the measure for the anthelmintic activity.
# Heterakis spumosa [2] = details: murine nematode Heterakis spumosa; oral dose; refs (13, 15); cited from earlier work
# histomonad field strain = assay: Cage experiments; histomonad activity in turkeys; assay type: in vivo; details: day -4 to +14; for Average lesions in the appendix / Infection-related lesions in the liver: score 0=no lesions, 4=severe lesions
# Procedure: Histomonad-free male turkeys aged 10 days received nifurtimox or the comparative compound nitarson in the concentration given in “ppm” together with the feed from day −4 (=4 days prior to infection) to day 14. Infection is carried out on day 0, 10 animals are kept per group cage. 1 to 3 such groups are employed per dose.
# The infection is carried out with a histomonad field strain which is passaged in the laboratory and stored in liquid nitrogen. On day 0, in each case 5 animals of a cage (with the exception of the noninfected control) are infected intracloacally with 250 000 histomonads in each case 1 ml of Dwyer's medium (=direct infection). After a few days, these infected animals excrete fresh histomonads and thus transmit the pathogen to the remaining 5 animals of the cage (=indirect infection).
# To assess the activity, the criteria of McDougald and Hu 2001 (7) are taken into consideration: • the infection-caused mortality • the weight gain from the beginning to the end of the experiment • feed consumption • feed conversion • macroscopic assessment of the infection-related lesions in the appendices (caecum) and in the liver. In this assessment, score 0=no lesions and score 4=severe lesions.
# Ascaridia galli = details: cited from earlier work
# [3] = direct infection no, nitarsone 187.5 ppm in feed, study of Table 1
# [4] = direct infection no, nitarsone 187.5 ppm in feed, study of Table 2
# [5] = direct infection yes, nitarsone 187.5 ppm in feed, study of Table 1
# [6] = direct infection yes, nitarsone 187.5 ppm in feed, study of Table 2
# [7] = nitarsone 187.5 ppm in feed, study of Table 1
# [8] = nitarsone 187.5 ppm in feed, study of Table 2
# [9] = direct infection no, nifurtimox 30 ppm in feed, study of Table 1
# [10] = direct infection no, nifurtimox 60 ppm in feed, study of Table 1
# [11] = direct infection no, nifurtimox 100 ppm in feed, study of Table 2
# [12] = direct infection no, nifurtimox 120 ppm in feed, study of Table 1
# [13] = direct infection no, nifurtimox 200 ppm in feed, study of Table 1
# [14] = direct infection no, nifurtimox 200 ppm in feed, study of Table 2
# [15] = direct infection no, nifurtimox 300 ppm in feed, study of Table 2
# [16] = direct infection no, nifurtimox 400 ppm in feed, study of Table 2
# [17] = direct infection yes, nifurtimox 30 ppm in feed, study of Table 1
# [18] = direct infection yes, nifurtimox 60 ppm in feed, study of Table 1
# [19] = direct infection yes, nifurtimox 100 ppm in feed, study of Table 2
# [20] = direct infection yes, nifurtimox 120 ppm in feed, study of Table 1
# [21] = direct infection yes, nifurtimox 200 ppm in feed, study of Table 1
# [22] = direct infection yes, nifurtimox 200 ppm in feed, study of Table 2
# [23] = direct infection yes, nifurtimox 300 ppm in feed, study of Table 2
# [24] = direct infection yes, nifurtimox 400 ppm in feed, study of Table 2
# [25] = nifurtimox 30 ppm in feed, study of Table 1
# [26] = nifurtimox 60 ppm in feed, study of Table 1
# [27] = nifurtimox 100 ppm in feed, study of Table 2
# [28] = nifurtimox 120 ppm in feed, study of Table 1
# [29] = nifurtimox 200 ppm in feed, study of Table 1
# [30] = nifurtimox 200 ppm in feed, study of Table 2
# [31] = nifurtimox 300 ppm in feed, study of Table 2
# [32] = nifurtimox 400 ppm in feed, study of Table 2
structure (smiles),measurement,setting,value
"CC(C)CC1C(=O)OC(Cc2ccc(N3CCOCC3)cc2)C(=O)N(C)C(CC(C)C)C(=O)OC(C)C(=O)N(C)C(CC(C)C)C(=O)OC(Cc2ccc(N3CCOCC3)cc2)C(=O)N(C)C(CC(C)C)C(=O)OC(C)C(=O)N1C [Emodepside, cyclo[(R)-lactoyl-N-methyl-L-leucyl-(R)-3-(p-morpholinophenyl)lactoyl-N-methyl-L-leucyl-(R)-lactoyl-N-methyl-L-leucyl-(R)-3-(p-morpholinophenyl)lactoyl-N-methyl-L-leucyl]]",Dose with full activity,Heterakis spumosa [1],1 to 10 mg/kg
same,Dose at which active against Heterakis spumosa,Heterakis spumosa [2],1 to 10 mg/kg
"O=[N+]([O-])c1ccc([As](=O)(O)O)cc1 [Nita., nitarsone]",Mean weight gain (g) between day 0 and the time of death,histomonad field strain; [3],782 g
same,Mean weight gain (g) between day 0 and the time of death,histomonad field strain; [4],725 g
same,Mean weight gain (g) between day 0 and the time of death,histomonad field strain; [5],541 g
same,Mean weight gain (g) between day 0 and the time of death,histomonad field strain; [6],426 g
same,Mean feed consumption between day 0 and day 14,histomonad field strain; [7],11.64 kg
same,Mean feed conversion between day 0 and day 14,histomonad field strain; [7],1.77
same,Mortality caused by histomoniasis,histomonad field strain; [7],1
same,Mean feed consumption between day 0 and day 14,histomonad field strain; [8],9.82 kg
same,Mean feed conversion between day 0 and day 14,histomonad field strain; [8],1.79
same,Mortality caused by histomoniasis,histomonad field strain; [8],2
same,Average lesions in the appendix,histomonad field strain; [3],0.00
same,Infection-related lesions in the liver,histomonad field strain; [3],0.00
same,Average lesions in the appendix,histomonad field strain; [4],0.29
same,Infection-related lesions in the liver,histomonad field strain; [4],0.21
same,Average lesions in the appendix,histomonad field strain; [5],2.26
same,Infection-related lesions in the liver,histomonad field strain; [5],0.13
same,Average lesions in the appendix,histomonad field strain; [6],3.07
same,Infection-related lesions in the liver,histomonad field strain; [6],0.79
CC(C)CC1C(=O)OC(Cc2ccccc2)C(=O)N(C)C(CC(C)C)C(=O)OC(C)C(=O)N(C)C(CC(C)C)C(=O)OC(Cc2ccccc2)C(=O)N(C)C(CC(C)C)C(=O)OC(C)C(=O)N1C (stereo not drawn) [PF1022A],Dose with full activity,Ascaridia galli; Ascaridia galli (chicken),2 mg/kg
same,Dose at which the compound acts against Ascaridia galli,"Ascaridia galli; Ascaridia galli in chickens, ref (16)",2 mg/kg
same,Dose with full activity,Heterakis spumosa [1],50 mg/kg
same,Dose at which active against Heterakis spumosa,Heterakis spumosa [2],50 mg/kg
CC1CS(=O)(=O)CCN1N=Cc1ccc([N+](=O)[O-])o1 (stereo not drawn) [nifurtimox],Mean weight gain (g) between day 0 and the time of death,histomonad field strain; [9],730 g
same,Mean weight gain (g) between day 0 and the time of death,histomonad field strain; [10],838 g
same,Mean weight gain (g) between day 0 and the time of death,histomonad field strain; [11],581 g
same,Mean weight gain (g) between day 0 and the time of death,histomonad field strain; [12],744 g
same,Mean weight gain (g) between day 0 and the time of death,histomonad field strain; [13],744 g
same,Mean weight gain (g) between day 0 and the time of death,histomonad field strain; [14],525 g
same,Mean weight gain (g) between day 0 and the time of death,histomonad field strain; [15],750 g
same,Mean weight gain (g) between day 0 and the time of death,histomonad field strain; [16],832 g
same,Mean weight gain (g) between day 0 and the time of death,histomonad field strain; [17],235 g
same,Mean weight gain (g) between day 0 and the time of death,histomonad field strain; [18],304 g
same,Mean weight gain (g) between day 0 and the time of death,histomonad field strain; [19],135 g
same,Mean weight gain (g) between day 0 and the time of death,histomonad field strain; [20],182 g
same,Mean weight gain (g) between day 0 and the time of death,histomonad field strain; [21],264 g
same,Mean weight gain (g) between day 0 and the time of death,histomonad field strain; [22],270 g
same,Mean weight gain (g) between day 0 and the time of death,histomonad field strain; [23],450 g
same,Mean weight gain (g) between day 0 and the time of death,histomonad field strain; [24],691 g
same,Mean feed consumption between day 0 and day 14,histomonad field strain; [25],9.00 kg
same,Mean feed conversion between day 0 and day 14,histomonad field strain; [25],1.88
same,Mortality caused by histomoniasis,histomonad field strain; [25],5
same,Mean feed consumption between day 0 and day 14,histomonad field strain; [26],9.68 kg
same,Mean feed conversion between day 0 and day 14,histomonad field strain; [26],1.70
same,Mortality caused by histomoniasis,histomonad field strain; [26],6
same,Mean feed consumption between day 0 and day 14,histomonad field strain; [27],6.69 kg
same,Mean feed conversion between day 0 and day 14,histomonad field strain; [27],2.32
same,Mortality caused by histomoniasis,histomonad field strain; [27],13
same,Mean feed consumption between day 0 and day 14,histomonad field strain; [28],8.70 kg
same,Mean feed conversion between day 0 and day 14,histomonad field strain; [28],1.88
same,Mortality caused by histomoniasis,histomonad field strain; [28],5
same,Mean feed consumption between day 0 and day 14,histomonad field strain; [29],9.59 kg
same,Mean feed conversion between day 0 and day 14,histomonad field strain; [29],1.91
same,Mortality caused by histomoniasis,histomonad field strain; [29],4
same,Mean feed consumption between day 0 and day 14,histomonad field strain; [30],9.14 kg
same,Mean feed conversion between day 0 and day 14,histomonad field strain; [30],2.33
same,Mortality caused by histomoniasis,histomonad field strain; [30],4
same,Mean feed consumption between day 0 and day 14,histomonad field strain; [31],10.40 kg
same,Mean feed conversion between day 0 and day 14,histomonad field strain; [31],1.83
same,Mortality caused by histomoniasis,histomonad field strain; [31],2
same,Mean feed consumption between day 0 and day 14,histomonad field strain; [32],11.79 kg
same,Mean feed conversion between day 0 and day 14,histomonad field strain; [32],1.55
same,Mortality caused by histomoniasis,histomonad field strain; [32],0
same,Average lesions in the appendix,histomonad field strain; [9],0.29
same,Infection-related lesions in the liver,histomonad field strain; [9],0.29
same,Average lesions in the appendix,histomonad field strain; [10],0.00
same,Infection-related lesions in the liver,histomonad field strain; [10],0.00
same,Average lesions in the appendix,histomonad field strain; [11],1.08
same,Infection-related lesions in the liver,histomonad field strain; [11],0.58
same,Average lesions in the appendix,histomonad field strain; [12],0.53
same,Infection-related lesions in the liver,histomonad field strain; [12],0.27
same,Average lesions in the appendix,histomonad field strain; [13],0.47
same,Infection-related lesions in the liver,histomonad field strain; [13],0.13
same,Average lesions in the appendix,histomonad field strain; [14],1.80
same,Infection-related lesions in the liver,histomonad field strain; [14],0.73
same,Average lesions in the appendix,histomonad field strain; [15],0.79
same,Infection-related lesions in the liver,histomonad field strain; [15],0.07
same,Average lesions in the appendix,histomonad field strain; [16],0.27
same,Infection-related lesions in the liver,histomonad field strain; [16],0.00
same,Average lesions in the appendix,histomonad field strain; [17],3.73
same,Infection-related lesions in the liver,histomonad field strain; [17],2.53
same,Average lesions in the appendix,histomonad field strain; [18],3.53
same,Infection-related lesions in the liver,histomonad field strain; [18],2.53
same,Average lesions in the appendix,histomonad field strain; [19],3.79
same,Infection-related lesions in the liver,histomonad field strain; [19],2.00
same,Average lesions in the appendix,histomonad field strain; [20],4.00
same,Infection-related lesions in the liver,histomonad field strain; [20],1.80
same,Average lesions in the appendix,histomonad field strain; [21],3.80
same,Infection-related lesions in the liver,histomonad field strain; [21],1.33
same,Average lesions in the appendix,histomonad field strain; [22],3.67
same,Infection-related lesions in the liver,histomonad field strain; [22],1.33
same,Average lesions in the appendix,histomonad field strain; [23],2.53
same,Infection-related lesions in the liver,histomonad field strain; [23],0.40
same,Average lesions in the appendix,histomonad field strain; [24],1.20
same,Infection-related lesions in the liver,histomonad field strain; [24],0.00

# From patent US8440613B2, “Controlling diseases caused by trichomonadida” (Bayer Intellectual Property GmbH, priority 2008, dated 2013)
